Earlier results on 2 compounds are cited in patent publication US20080152709A1, “CLONIDINE COMPOSITION AND METHOD OF USE” (DRUGTECH CORPORATION, priority 2006, published 2008).

Where a name gives a salt, the structure may show the parent alone. Read-outs that look alike come from different tables or passages of the source.

The conditions of series [1]: oral administration of 0.3 mg.
For series [2] the following is noted: administered orally.
Assay in series [3]: not given
The source holds these as a separate data set.

Series [4] relates to patients with morning hypertension. To be noted: once daily in the evening, added to pre-existing antihypertensive regimen.
For series [5] the following is noted: oral 0.075 mg twice daily for three days; third day.
Assay in series [6]: not given
This is another data set of the same source.

For series [7] the following is noted: once daily oral 0.25 and 0.5 mg, sustained-release formulation.
[8] abbreviates: single oral dose of 0.3 mg clonidine hydrochloride.
Setting [9] is: single oral dose of 0.3 mg, all subjects.

As for `Clc1cccc(Cl)c1N=C1NCCN1` [clonidine hydrochloride], under setting [8], the “mean maximum plasma concentration” value is 1.35 ng/mL and the “time of mean maximum concentration after administration” value is 1 h. Also, the “plasma concentration at 24 hours” value (single oral dose of 0.3 mg clonidine hydrochloride, 24 hours) is recorded as “below 0.5 ng/ml”. Besides, under setting [9], the “salivary flow (dry mouth symptoms)” value is “marked reduction in salivary flow” and the sedation entry is “markedly sedated”.
Consider `Clc1cccc(Cl)c1NC1=NCCN1` [clonidine, N-(2,6-dichlorophenyl)-4,5-dihydro-1H-imidazol-2-amine], for which, in series [1], the “peak plasma clonidine concentration” value is 1.34 ng/mL. Further, in series [2], the “absorption from the gastrointestinal tract” value is listed as “almost completely absorbed”. The “peak clonidine concentration (Cmax)” value in series [3] (single oral dose 0.075 mg) was 0.28 ng/mL; in series [3] (single oral dose 0.15 mg), 0.61 ng/mL; in series [3] (single oral dose 0.25 mg), 1.16 ng/mL. For the same compound, the “plasma concentration 24 hours after administration” value in series [3] (single oral dose 0.075 mg) is 0.06 ng/mL; in series [3] (single oral dose 0.15 mg) it was 0.07 ng/mL; in series [3] (single oral dose 0.25 mg), 0.34 ng/mL. The morning blood pressure entry in series [4] is “effective in reducing morning blood pressure”. Also, the peak clonidine concentration in series [5] was 0.39 ng/mL. Moreover, the “effect on diastolic blood pressure” value in series [6] (0.1 mg administered at 4 pm or 8 pm) is recorded as “not”; in series [6] (0.1 mg administered at 6 am or 12 noon), “reduced diastolic blood pressure”. For the same compound, in series [7], the 24-hour antihypertensive efficacy entry was “Reduction in blood pressure was observed throughout the 24 hours”.
